Measured values reported in PubChem BioAssay AID1963845 (Molecular Pharmacology Branch, DTP, NCI, 2024).

Tested on: 429239-143-T-J1-PDC complex spheroid viability
Experiment: Anticancer human tumor 429239-143-T-J1-PDC patient-derived small cell lung carcinoma cell line growth inhibition [POLQ]
Conditions: for IC50: curve of first compound; for viability, T/C: stronger effect = lower value
Procedure, shortened: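 Patient-derived tumour cells were co-cultured with HUVEC and mesenchymal stem cells as multicellular spheroids at 37 °C. They were treated with POLQ inhibitors (novobiocin, ART-558, RP6685) alone or combined with other agents. Top concentrations were at or near clinical Cmax (otherwise 10 microM; SN-38 at 1 microM), decreasing in half-log steps.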

[1] = second compound 0.0316 µM, first compound 0.00316 µM
[2] = second compound 0.0316 µM, first compound 0.01 µM
[3] = second compound 0.0316 µM, first compound 0.0316 µM
[4] = second compound 0.0316 µM, first compound 0.1 µM
[5] = second compound 0.1 µM, first compound 0.00316 µM
[6] = second compound 0.1 µM, first compound 0.01 µM
[7] = second compound 0.1 µM, first compound 0.0316 µM
[8] = second compound 0.1 µM, first compound 0.1 µM
[9] = second compound 0.316 µM, first compound 0.00316 µM
[10] = second compound 0.316 µM, first compound 0.01 µM
[11] = second compound 0.316 µM, first compound 0.0316 µM
[12] = second compound 0.316 µM, first compound 0.1 µM
[13] = second compound 1 µM, first compound 0.00316 µM
[14] = second compound 1 µM, first compound 0.01 µM
[15] = second compound 1 µM, first compound 0.0316 µM
[16] = second compound 1 µM, first compound 0.1 µM
[17] = second compound 3.16 µM, first compound 0.00316 µM
[18] = second compound 3.16 µM, first compound 0.01 µM
[19] = second compound 3.16 µM, first compound 0.0316 µM
[20] = second compound 3.16 µM, first compound 0.1 µM
[21] = second compound 10 µM, first compound 0.00316 µM
[22] = second compound 10 µM, first compound 0.01 µM
[23] = second compound 10 µM, first compound 0.0316 µM
[24] = second compound 10 µM, first compound 0.1 µM
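Also: luminescence signal used as surrogate measure of viable cells; spheroids exposed to compounds for seven days before readout.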
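For viability, T/C in this document: 100% = DMSO vehicle control viability as luminescence relative to vehicle.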

Structure (SMILES): CC[C@@]1(O)C(=O)OCc2c1cc1n(c2=O)Cc2cc3c(CN(C)C)c(O)ccc3nc2-1 + Cc1cccc(N(C)C(=O)C2C(O)CCN2c2nc(C)cc(C(F)(F)F)c2C#N)c1
- IC50 (second compound 0.0316 µM): 0.0105 µM
- IC50 (second compound 0.1 µM): 0.0155 µM
- IC50 (second compound 0.316 µM): 0.0155 µM
- IC50 (second compound 1 µM): 0.0153 µM
- IC50 (second compound 3.16 µM): 0.0127 µM
- IC50 (second compound 10 µM): 0.0128 µM
- viability, T/C (second compound 0.0316 µM, first compound 0.000316 µM): 102%
- viability, T/C (second compound 0.0316 µM, first compound 0.001 µM): 98.8%
- viability, T/C [1]: 94.6%
- viability, T/C [2]: 51.7%
- viability, T/C [3]: 18.5%
- viability, T/C [4]: 18.2%
- viability, T/C (second compound 0.1 µM, first compound 0.000316 µM): 100%
- viability, T/C (second compound 0.1 µM, first compound 0.001 µM): 106%
- viability, T/C [5]: 96.3%
- viability, T/C [6]: 69.9%
- viability, T/C [7]: 15.8%
- viability, T/C [8]: 18.5%
- viability, T/C (second compound 0.316 µM, first compound 0.000316 µM): 102%
- viability, T/C (second compound 0.316 µM, first compound 0.001 µM): 107%
- viability, T/C [9]: 88.7%
- viability, T/C [10]: 70.3%
- viability, T/C [11]: 14.9%
- viability, T/C [12]: 18.3%
- viability, T/C (second compound 1 µM, first compound 0.000316 µM): 99.1%
- viability, T/C (second compound 1 µM, first compound 0.001 µM): 105%
- viability, T/C [13]: 103%
- viability, T/C [14]: 68.8%
- viability, T/C [15]: 17.9%
- viability, T/C [16]: 16.9%
- viability, T/C (second compound 3.16 µM, first compound 0.000316 µM): 106%
- viability, T/C (second compound 3.16 µM, first compound 0.001 µM): 90.4%
- viability, T/C [17]: 94.2%
- viability, T/C [18]: 58%
- viability, T/C [19]: 19.3%
- viability, T/C [20]: 18.9%
- viability, T/C (second compound 10 µM, first compound 0.000316 µM): 101%
- viability, T/C (second compound 10 µM, first compound 0.001 µM): 96.2%
- viability, T/C [21]: 94.3%
- viability, T/C [22]: 57.9%
- viability, T/C [23]: 20.4%
- viability, T/C [24]: 19.6%

Structure (SMILES): CCc1c2c(nc3ccc(O)cc13)-c1cc3c(c(=O)n1C2)COC(=O)[C@]3(O)CC + Cc1cccc(N(C)C(=O)C2C(O)CCN2c2nc(C)cc(C(F)(F)F)c2C#N)c1
- IC50 (second compound 0.0316 µM): < 0.00316 µM
- IC50 (second compound 0.1 µM): < 0.00316 µM
- IC50 (second compound 0.316 µM): < 0.00316 µM
- IC50 (second compound 1 µM): < 0.00316 µM
- IC50 (second compound 3.16 µM): < 0.00316 µM
- IC50 (second compound 10 µM): < 0.00316 µM
- viability, T/C [1]: 16.9%
- viability, T/C [2]: 17.8%
- viability, T/C [3]: 16.1%
- viability, T/C [4]: 17.5%
- viability, T/C (second compound 0.0316 µM, first compound 0.316 µM): 13.3%
- viability, T/C (second compound 0.0316 µM, first compound 1 µM): 5.41%
- viability, T/C [5]: 17.8%
- viability, T/C [6]: 18.5%
- viability, T/C [7]: 17.6%
- viability, T/C [8]: 19%
- viability, T/C (second compound 0.1 µM, first compound 0.316 µM): 13.6%
- viability, T/C (second compound 0.1 µM, first compound 1 µM): 4.17%
- viability, T/C [9]: 16.2%
- viability, T/C [10]: 20.4%
- viability, T/C [11]: 16.4%
- viability, T/C [12]: 17.6%
- viability, T/C (second compound 0.316 µM, first compound 0.316 µM): 14.1%
- viability, T/C (second compound 0.316 µM, first compound 1 µM): 6.26%
- viability, T/C [13]: 21.1%
- viability, T/C [14]: 16.7%
- viability, T/C [15]: 17.5%
- viability, T/C [16]: 16.5%
- viability, T/C (second compound 1 µM, first compound 0.316 µM): 17.5%
- viability, T/C (second compound 1 µM, first compound 1 µM): 3.94%
- viability, T/C [17]: 19.9%
- viability, T/C [18]: 17.4%
- viability, T/C [19]: 21.6%
- viability, T/C [20]: 16.1%
- viability, T/C (second compound 3.16 µM, first compound 0.316 µM): 14.9%
- viability, T/C (second compound 3.16 µM, first compound 1 µM): 5.15%
- viability, T/C [21]: 18.9%
- viability, T/C [22]: 17.5%
- viability, T/C [23]: 20.7%
- viability, T/C [24]: 17.5%
- viability, T/C (second compound 10 µM, first compound 0.316 µM): 17.9%
- viability, T/C (second compound 10 µM, first compound 1 µM): 3.41%
